Source: patent publication US20240343694A1, “PYRIMIDINE DERIVATIVE, METHOD FOR PREPARING SAME, AND PHARMACEUTICAL COMPOSITION FOR PREVENTING OR TREATING CANCER COMPRISING SAME AS ACTIVE INGREDIENT” (KOREA RESERARCH INSTITUTE OF CHEMICAL TECHNOLOGY, priority 2021, published 2024)

Tests used:
EGFR A763_Y764insFHEA = EGFR A763_Y764insFHEA (Homo sapiens (Human), UniProt P00533, INS763FHEA); assay: HTRF inhibitory activity against EGFR mutant enzyme (EGFR A763_Y764insFHEA); type: biochemical; details: recombinant enzyme, 37° C. for 2 hours
Outline: (§1)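 Recombinant EGFR del19 or A763_Y764insFHEA was premixed with compound in 50 mM Tris pH 7.5 with 7.5 mM MgCl2 and 1 mM DTT. ATP (50 mM as printed) and biotin-peptide (0.5 mM) were added and reacted 2 h at 37 °C. The HTRF 665/615 read used streptavidin-XL665 and Eu anti-phosphotyrosine. IC50 was fitted from 7 concentrations.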

HER2 A775_G776insYVMA = HER2 A775_G776insYVMA (Homo sapiens (Human), UniProt P04626, INS775YVMA); assay: HTRF inhibitory activity against HER2 mutant enzyme; type: biochemical; details: recombinant enzyme, 37° C. for 2 hours
Outline: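 Recombinant HER2 A775_G776insYVMA preincubated with compound, then […] and biotinylated peptide ([…]) added; 2 h at 37 °C in Tris-HCl pH 7.5 buffer with MgCl2, DTT. HTRF detection (Eu anti-phosphotyrosine/streptavidin-XL665); IC50 from 7 concentrations.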

[1] = test system: Ba/F3 EGFR V769_D770insASV; assay: Growth inhibition of Ba/F3 EGFR mutant cells (CellTiter-Glo); type: cell-based; details: 72 hours
Method: (§2) The activity of the compounds of the present invention against Ba/F3 EGFR V769_D770insASV and Ba/F3 EGFR D770_N771insSVD mutant cell lines was measured using the CellTiter-Glo system purchased from Promega as follows. CellTiter-Glo assay is a method to measure cell viability by monitoring ATP present in cells. Ba/F3 EGFR V769_D770insASV and Ba/F3 EGFR D770_N771insSVD mutant cell lines were purchased from Crown Biosciences. Ba/F3 EGFR V769_D770insASV and Ba/F3 EGFR D770_N771insSVD mutant cell lines were cultured in RPMI containing 10% FBS and 1% penicillin-streptomycin with 1 μg/mL of puromycin in a 5% CO2 incubator at 37° C.
(§3) The analysis of the ability of the compounds to inhibit the growth of EGFR mutant cells was performed according to the following method. 1,000 cells/100 μL were seeded in a 96-well cell culture plate, and 24 hours thereafter, the compounds represented by Formula 1 were treated with 0 μM, 0.01 μM, 0.03 μM, 0.1 μM, 0.3 μM, 1 μM, 3 μM, and 10 μM. After incubating for 72 hours, the plate treated with the compounds were left at room temperature for 30 minutes, 100 μL of a reagent was further added thereto, and then shaken at room temperature for 10 minutes. Finally, using equipment, the ratio of […] was measured to confirm the cell growth inhibition ability of the compounds. The measured values at 8 compound concentrations were analyzed using the Prism program (version 5.01, Graphpad Software, Inc.), and the IC50 (μM) values, which are measures of the compounds' inhibitory ability, were calculated.

[2] = test system: Ba/F3 EGFR D770_N771insSVD; assay: as above; type: cell-based; details: Ba/F3 EGFR-D770-N771ins_SVD, 72 hours
Method: as §2, §3

Ba/F3 HER2 G776delinsVC = assay: Growth inhibition of Ba/F3 HER2 mutant cells (CellTiter-Glo); type: cell-based; details: Mus musculus, BaF3, 72 hours
Outline: (§4)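 Ba/F3 cells carrying HER2 A775_G776insYVMA or G776delinsVC were seeded at 1,000 cells/well and dosed 24 h later at 0.01-10 μM (8 concentrations including 0). After 72 h, viability was read as cellular ATP by CellTiter-Glo luminescence, and IC50 values were calculated from the 8-point curves.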

[3] = test system: Ba/F3 HER2 A775_G776insYVMA; assay: as above; type: cell-based; details: Mus musculus, BaF3, 72 hours
Outline: as §4

EGFR del19 = EGFR del19 (Homo sapiens (Human), UniProt P00533, DEL746-750); assay: HTRF inhibitory activity against EGFR mutant enzyme (EGFR del19); type: biochemical; details: recombinant enzyme, 37° C. for 2 hours
Outline: as §1

Chain of HER2 A775_G776insYVMA (P04626 other isoform, or with tags, fused parts or gaps del 1-675/ins YVMA behind 775 limits assumed): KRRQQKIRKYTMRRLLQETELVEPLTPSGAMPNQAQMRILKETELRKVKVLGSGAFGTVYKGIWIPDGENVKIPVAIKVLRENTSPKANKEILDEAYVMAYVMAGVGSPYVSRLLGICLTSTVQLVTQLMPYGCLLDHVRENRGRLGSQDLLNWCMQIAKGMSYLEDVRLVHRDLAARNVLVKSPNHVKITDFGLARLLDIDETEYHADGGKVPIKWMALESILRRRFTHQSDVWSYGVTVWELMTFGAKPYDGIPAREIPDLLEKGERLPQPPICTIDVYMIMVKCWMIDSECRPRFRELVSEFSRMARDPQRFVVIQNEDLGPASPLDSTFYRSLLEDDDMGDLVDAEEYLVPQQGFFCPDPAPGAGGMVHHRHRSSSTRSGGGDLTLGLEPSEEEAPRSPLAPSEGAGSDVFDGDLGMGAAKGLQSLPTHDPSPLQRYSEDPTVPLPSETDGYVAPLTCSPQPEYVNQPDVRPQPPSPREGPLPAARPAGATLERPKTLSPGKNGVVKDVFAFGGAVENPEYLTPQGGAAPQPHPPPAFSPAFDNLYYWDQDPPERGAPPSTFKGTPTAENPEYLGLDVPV
Chain of EGFR del19 (P00533 other isoform, or with tags, fused parts or gaps del 1-668/del 746-750 limits assumed): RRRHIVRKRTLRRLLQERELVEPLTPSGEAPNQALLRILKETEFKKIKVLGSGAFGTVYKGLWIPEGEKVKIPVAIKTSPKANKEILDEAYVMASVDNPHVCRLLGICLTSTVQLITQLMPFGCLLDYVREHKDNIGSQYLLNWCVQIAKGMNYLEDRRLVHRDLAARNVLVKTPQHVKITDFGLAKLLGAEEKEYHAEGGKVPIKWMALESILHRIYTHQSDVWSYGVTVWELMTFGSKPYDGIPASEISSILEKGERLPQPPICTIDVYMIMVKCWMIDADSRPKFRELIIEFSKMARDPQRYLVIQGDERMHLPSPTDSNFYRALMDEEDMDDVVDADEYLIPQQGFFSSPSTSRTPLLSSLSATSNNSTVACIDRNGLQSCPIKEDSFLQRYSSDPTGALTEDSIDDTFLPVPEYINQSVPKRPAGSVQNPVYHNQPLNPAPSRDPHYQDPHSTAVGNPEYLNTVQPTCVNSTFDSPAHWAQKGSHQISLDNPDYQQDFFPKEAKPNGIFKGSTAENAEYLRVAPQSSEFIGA
Chain of EGFR A763_Y764insFHEA (P00533 other isoform, or with tags, fused parts or gaps del 1-694/ins FHEA behind 763 limits assumed): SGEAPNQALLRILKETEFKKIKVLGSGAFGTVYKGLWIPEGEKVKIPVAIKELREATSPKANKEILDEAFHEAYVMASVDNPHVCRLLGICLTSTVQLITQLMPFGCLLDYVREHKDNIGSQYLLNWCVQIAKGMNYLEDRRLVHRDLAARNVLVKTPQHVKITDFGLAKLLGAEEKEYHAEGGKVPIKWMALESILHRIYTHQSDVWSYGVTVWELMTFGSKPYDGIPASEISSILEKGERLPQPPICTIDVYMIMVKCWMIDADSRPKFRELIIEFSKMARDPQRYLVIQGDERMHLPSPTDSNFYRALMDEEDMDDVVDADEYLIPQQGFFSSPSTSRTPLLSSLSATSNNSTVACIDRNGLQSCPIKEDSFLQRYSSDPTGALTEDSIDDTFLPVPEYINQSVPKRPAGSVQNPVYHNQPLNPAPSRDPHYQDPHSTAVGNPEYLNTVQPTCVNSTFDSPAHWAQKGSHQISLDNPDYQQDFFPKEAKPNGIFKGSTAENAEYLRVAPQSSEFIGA

Compound	IC50 (EGFR A763_Y764insFHEA)	IC50 (HER2 A775_G776insYVMA)	IC50 [1]	IC50 [2]	IC50 (Ba/F3 HER2 G776delinsVC)	IC50 [3]	IC50 (EGFR del19)
C=CC(=O)Nc1cc(Nc2ncc(Cl)c(Nc3cccc(C(C)C)c3N(C)S(C)(=O)=O)n2)c(OC)cc1N(C)CCN(C)C [Example 37, N-(5-((5-chloro-4-((3-isopropyl-2-(N-methylmethylsulfonamido)phenyl)amino)pyrimidin-2-yl)amino)-2-((2-(dimethylamino)ethyl)(methyl)amino)-4-methoxyphenyl)acrylamide]	2 nM	26 nM	50 to 100 nM	50 to 100 nM	30 to 50 nM	50 to 100 nM	< 1 nM
C=CC(=O)Nc1cc(Nc2ncc(Cl)c(Nc3cccc(C)c3N(C)S(C)(=O)=O)n2)c(OC)cc1N(C)CCN(C)C [Example 38, N-(5-((5-chloro-4-((3-methyl-2-(N-methylmethylsulfonamido)phenyl)amino)pyrimidin-2-yl)amino)-2-((2-(dimethylamino)ethyl)(methyl)amino)-4-methoxyphenyl)acrylamide]	2 nM	14 nM	30 to 50 nM	30 to 50 nM	< 10 nM	30 to 50 nM	< 1 nM
C=CC(=O)Nc1cc(Nc2ncc(Cl)c(Nc3cccc(C)c3N(CC)S(C)(=O)=O)n2)c(OC)cc1N(C)CCN(C)C [Example 39, N-(5-((5-chloro-4-((2-(N-ethylmethylsulfonamido)-3-methylphenyl)amino)pyrimidin-2-yl)amino)-2-((2-(dimethylamino)ethyl)(methyl)amino)-4-methoxyphenyl)acrylamide]	< 1 nM	8 nM	< 10 nM	30 to 50 nM	< 10 nM	30 to 50 nM	< 1 nM
C=CC(=O)Nc1cc(Nc2ncc(Cl)c(Nc3cccc(CC)c3NS(C)(=O)=O)n2)c(OC)cc1N(C)CCN(C)C [Example 40, N-(5-((5-chloro-4-((3-ethyl-2-(methylsulfonamido)phenyl)amino)pyrimidin-2-yl)amino)-2-((2-(dimethylamino)ethyl)(methyl)amino)-4-methoxyphenyl)acrylamide]	1 nM	4 nM	30 to 50 nM	30 to 50 nM	< 10 nM	30 to 50 nM	< 1 nM
C=CC(=O)Nc1cc(Nc2ncc(Cl)c(Nc3cccc(CC)c3N(C)S(C)(=O)=O)n2)c(OC)cc1N(C)CCN(C)C [Example 41, N-(5-((5-chloro-4-((3-ethyl-2-(N-methylmethylsulfonamido)phenyl)amino)pyrimidin-2-yl)amino)-2-((2-(dimethylamino)ethyl)(methyl)amino)-4-methoxyphenyl)acrylamide]	1 nM	9 nM	30 to 50 nM	30 to 50 nM	< 10 nM	50 to 100 nM	< 1 nM
C=CC(=O)Nc1cc(Nc2ncc(Cl)c(Nc3ccc(C)c(C)c3N(C)S(C)(=O)=O)n2)c(OC)cc1N(C)CCN(C)C [Example 43, N-(5-((5-chloro-4-((3,4-dimethyl-2-(N-methylmethylsulfonamido)phenyl)amino)pyrimidin-2-yl)amino)-2-((2-(dimethylamino)ethyl)(methyl)amino)-4-methoxyphenyl)acrylamide]	< 1 nM	8 nM	< 10 nM	50 to 100 nM	< 10 nM	30 to 50 nM	< 1 nM
C=CC(=O)Nc1cc(Nc2ncc(Cl)c(Nc3ccc(C)cc3N(C)S(C)(=O)=O)n2)c(OC)cc1N(C)CCN(C)C [Example 45, N-(5-((5-chloro-4-((4-methyl-2-(N-methylmethylsulfonamido)phenyl)amino)pyrimidin-2-yl)amino)-2-((2-(dimethylamino)ethyl)(methyl)amino)-4-methoxyphenyl)acrylamide]	< 1 nM	8 nM	< 10 nM	< 10 nM	< 10 nM	< 10 nM	< 1 nM
C=CC(=O)Nc1cc(Nc2ncc(Cl)c(Nc3ccc(C)cc3NS(C)(=O)=O)n2)c(OC)cc1N(C)CCN(C)C [Example 46, N-(5-((5-chloro-4-((4-methyl-2-(methylsulfonamido)phenyl)amino)pyrimidin-2-yl)amino)-2-((2-(dimethylamino)ethyl)(methyl)amino)-4-methoxyphenyl)acrylamide]	< 1 nM	2 nM	30 to 50 nM	< 10 nM	30 to 50 nM	< 10 nM	< 1 nM
C=CC(=O)Nc1cc(Nc2ncc(Cl)c(Nc3cccc4c3N(S(C)(=O)=O)CCC4)n2)c(OC)cc1N(C)CCN(C)C [Example 47, N-(5-((5-chloro-4-((1-(methylsulfonyl)-1,2,3,4-tetrahydroquinolin-8-yl)amino)pyrimidin-2-yl)amino)-2-((2-(dimethylamino)ethyl)(methyl)amino)-4-methoxyphenyl)acrylamide]	< 1 nM	6 nM	< 10 nM	< 10 nM	< 10 nM	< 10 nM	< 1 nM
C=CC(=O)Nc1cc(Nc2ncc(Cl)c(Nc3cccc4c3N(S(C)(=O)=O)CCC4)n2)c(OC)cc1N(C)CCNC [Example 48, N-(5-((5-chloro-4-((1-(methylsulfonyl)-1,2,3,4-tetrahydroquinolin-8-yl)amino)pyrimidin-2-yl)amino)-4-methoxy-2-(methyl(2-(methylamino)ethyl)amino)phenyl)acrylamide]	7 nM	20 nM	50 to 100 nM	50 to 100 nM	< 10 nM	50 to 100 nM	3 nM
C=CC(=O)Nc1cc(Nc2ncc(Cl)c(Nc3cccc4c3N(S(C)(=O)=O)CCC4)n2)c(OC)cc1N1CCC(N(C)C)CC1 [Example 49, N-(5-((5-chloro-4-((1-(methylsulfonyl)-1,2,3,4-tetrahydroquinolin-8-yl)amino)pyrimidin-2-yl)amino)-2-(4-(dimethylamino)piperidin-1-yl)-4-methoxyphenyl)acrylamide]	10 nM	60 nM	50 to 100 nM	50 to 100 nM	< 10 nM	50 to 100 nM	0.1 nM
C=CC(=O)Nc1cc(Nc2ncc(Cl)c(Nc3cccc4c3N(S(C)(=O)=O)CCC4)n2)c(OC)cc1N1CCC(N2CCN(C)CC2)CC1 [Example 50, N-(5-((5-chloro-4-((1-(methylsulfonyl)-1,2,3,4-tetrahydroquinolin-8-yl)amino)pyrimidin-2-yl)amino)-4-methoxy-2-(4-(4-methylpiperazin-1-yl)piperidin-1-yl)phenyl)acrylamide]	3 nM	60 nM	50 to 100 nM	50 to 100 nM	< 10 nM	50 to 100 nM	< 1 nM
C=CC(=O)Nc1cc(Nc2ncc(Cl)c(Nc3cccc4c3N(S(C)(=O)=O)CC4)n2)c(OC)cc1N(C)CCN(C)C [Example 55, N-(5-((5-chloro-4-((1-(methylsulfonyl)indolin-7-yl)amino)pyrimidin-2-yl)amino)-2-((2-(dimethylamino)ethyl)(methyl)amino)-4-methoxyphenyl)acrylamide]	< 1 nM	< 1 nM	< 10 nM	< 10 nM	< 10 nM	< 10 nM	< 1 nM
C=CC(=O)Nc1cc(Nc2ncc(Cl)c(Nc3cccc4c3N(S(=O)(=O)CC)CC4)n2)c(OC)cc1N(C)CCN(C)C [Example 56, N-(5-((5-chloro-4-((1-(ethylsulfonyl)indolin-7-yl)amino)pyrimidin-2-yl)amino)-2-((2-(dimethylamino)ethyl)(methyl)amino)-4-methoxyphenyl)acrylamide]	< 1 nM	< 1 nM	< 10 nM	< 10 nM	< 10 nM	< 10 nM	< 1 nM
